According to patent US9482924B2, “Colored composition and image display structure” (FUJIFILM CORPORATION, priority 2011, dated 2016):

Experiments:
Solubility in n-hexane = details: in n-hexane at 25° C. and 0.1 MPa
Experimental: Hereinafter, “a solubility in n-hexane at 25° C. and 0.1 MPa” of a pigment is also simply referred to as “solubility”.
The solubility of each azomethine pigment in n-hexane, which is a non-polar solvent, was measured by the following method.
Each pigment was dissolved in n-hexane that had been heated to 50° C. to prepare a saturated solution, and then the saturated solution obtained was left to stand in an environment of 0.1 MPa at 25° C. for 1 hour. The precipitated pigment was filtered and the precipitation amount was measured, thereby calculating the solubility (% by mass) of each pigment in n-hexane at 25° C. and 0.1 MPa.

[1] = Absorption maximum wavelength, absorbance and absorption coefficient of colored solution; format: physicochemical; details: n-hexane colored solution; for Absorption coefficient (ε): calculated in accordance with the Lambert-Beer law
Experimental: Azomethine pigments (preparing the above exemplified compounds D-1, D-5, D-11, D-20, D-26, D-38, D-43, D-46, D-49, D-55, D-56, D-57 and D-65 shown in the following Table) and n-hexane as an organic solvent were mixed to prepare a 15% by mass azomethine pigment-n-hexane solution (colored composition), thereby manufacturing 13 kinds of colored solutions.
For the colored solution (colored composition), the absorption maximum wavelength (λmax) and the absorbance were measured with a visible light absorbance spectrometer (UV-1800PC, manufactured by Shimadzu Corporation) and the absorption coefficient (ε) was calculated in accordance with the Lambert-Beer law.

[2] = Measurement of dynamic viscosity; format: physicochemical; details: solution of 10% by mass of pigment in decane
Experimental: Note that, the dynamic viscosity is a value measured by adjusting a solution at 10% by mass of the pigment in decane to 20° C. using a viscometer (500 TYPE, manufactured by Toki Sangyo Co., Ltd.).
For the azomethine pigments shown in the following Table 7, a solution of 10% by mass of each pigment in decane was prepared and an R-type viscometer (500 TYPE, manufactured by Toki Sangyo Co., Ltd.) was used to measure the viscosity thereof at 20° C.

[3] = Measurement of relative permittivity; format: physicochemical; details: pigment itself, extrapolated from 5, 7.5 and 10% by mass solutions in n-hexane; 20° C., 40% RH, 1 kHz
Experimental: The relative permittivity is a value obtained by injecting the colored composition into a glass cell having a cell gap of 10 μm to which an indium tin oxide (ITO) transparent electrode is attached and measuring, at 20° C. and 40% RH, the electric capacitance of the cell with the colored composition thus-obtained using a TYPE 2353LCR METER (measuring frequency: 1 kHz) manufactured by NF Co., Ltd.
The azomethine pigments shown in the following Table 7 were prepared and solutions of 5% by mass, 7.5% by mass and 10% by mass of each pigment dissolved in n-hexane (all were colored solutions) were prepared. Each colored solution obtained was injected into a glass cell having a cell gap of 10 μm to which an indium tin oxide (ITO) transparent electrode was attached. For each of the glass cells, the electric capacitance was measured (measuring frequency: 1 kHz). Further, a cell for reference was prepared by injecting only n-hexane into a glass cell which was the same kind of glass cell as described above, and the electric capacitance of the cell for reference was also measured. The electric capacitance of the cell obtained was measured at 20° C. and 40% RH using a type 2353LCR meter (measuring frequency: 1 kHz) manufacture by NF Co., Ltd.
The relative permittivity of each colored solution was obtained by the above measurement, and the relative permittivity of each azomethine pigment itself was calculated from the above relative permittivity by extrapolation.

| Solubility (% by mass) (Solubility in n-hexane) | Absorption maximum wavelength [λmax] [1] [nm] | Absorption coefficient (ε) [1] | Viscosity (20° C.) [2] [mPa · s] | Relative permittivity [3] | Compound |
| --- | --- | --- | --- | --- | --- |
| 12.3 % by mass | 540 | 7.55 × 10^4 | 1.2 | 6.2 | CCCCCCCCN1CCc2cc(/N=C3/C(C)=Nn4nc(C(C)CNC(=O)C(CCCCCC)Oc5ccc(C(C)(C)CC)cc5C(C)(C)CC)nc43)ccc21 [Pigment D-57] |
| ≥ 15.0 % by mass | 725 | 6.8 × 10^4 |  |  | CCCCCCN(CCCCCC)c1cc(C)c(N=C2C(C#N)=C(C(=O)OC3C(C(C)(C)C)CC(C)CC3C(C)(C)C)c3nc(C(C)(C)C)nn32)c(C)c1 [Pigment D-65] |
| ≤ 0.05 % by mass |  |  |  |  | CCCCN(CCCC)c1ccc(N=C2C=C(C(=O)NC)C(=O)c3ccccc32)cc1 [Pigment D-104, reference compound] |
|  | 630 | 2.9 × 10^4 | 1.5 | 4.4 | CCCCCCCCCCCCCCCCNC(=O)C1=CC(=Nc2ccc(N(CC)CC)cc2CC)c2ccccc2C1=O [Pigment D-38] |
| ≤ 0.05 % by mass |  |  |  |  | CCN(CC)c1ccc(N=C2C(=O)ON=C2C(C)(C)C)cc1 [Pigment D-102, reference compound] |
| 3.5 % by mass | 550 | 7.2 × 10^4 |  |  | CCCCCCOc1cc(N(CCCCCC)CCCCCC)ccc1N=C1C(C#N)=Nn2nc(C(C)(C)C)nc21 [Pigment D-56] |
|  | 480 | 4.80 × 10^4 | 1.2 | 8.8 | CCCCCCCCOc1cc(N(CCCC)CCCC)ccc1N=C1C(=O)ON=C1c1ccccc1 [Pigment D-20] |
| 9.5 % by mass | 500 | 6.05 × 10^4 | 1.3 | 8.6 | CCCCCCCCN(CCCCCCCC)c1ccc(N=C2C(=O)N(c3ccccc3)N=C2C)c(C)c1 [Pigment D-1] |
|  | 635 | 2.8 × 10^4 |  |  | CCCCCCN(CCCCCC)c1ccc(N=C2C=C(C(=O)Nc3ccccc3)C(=O)c3ccccc32)c(C)c1 [Pigment D-46] |
| 8.5 % by mass | 502 | 5.20 × 10^4 |  |  | CCCCCCCCN1N=C(C(C)(C)C)C(=Nc2ccc(N(CC)CC)cc2C)C1=O [Pigment D-5] |
| 11 % by mass | 518 | 7.2 × 10^4 | 1.2 | 6.7 | CCCCCCCCN(CCCCCCCC)c1ccc(N=C2C(C(C)(C)C)=Nn3nc(-c4ccccc4)nc32)c(C)c1 [Pigment D-49] |
|  | 626 | 2.8 × 10^4 | 1.4 | 6 | CCCCCCCCNC(=O)C1=CC(=Nc2ccc(N(CCCCCCCC)CCCCCCCC)cc2)C=C(C)C1=O [Pigment D-26] |
| ≤ 0.05 % by mass |  |  |  |  | CCN(CC)c1ccc(N=C2C=C(NC(C)=O)C(=O)C(Cl)=C2C)c(C)c1 [Pigment D-103, reference compound] |
| 1.1 % by mass | 502 | 5.60 × 10^4 |  |  | CCCCCCN(CCCCCC)c1ccc(N=C2C(=O)N(c3ccccc3)N=C2C(C)(C)C)c(C)c1 [Pigment D-11] |
| 0.05 or less % by mass |  |  |  |  | CCN(CC)c1ccc(N=C2C(=O)N(c3ccccc3)N=C2C)c(C)c1 [Pigment D-101, reference compound] |
| ≤ 0.05 % by mass |  |  |  |  | CCN(CC)c1ccc(/N=C2\C(C#N)=C(C(=O)OC)c3nc(-c4ccc(C(C)(C)C)cc4)nn32)c(C)c1 [Pigment D-106, reference compound] |
|  | 658 | 2.6 × 10^4 | 1.5 | 4.7 | CCCCCCCCCCCCCCCCCCNC(=O)C1=CC(=Nc2ccc(N(CC)CC)cc2OC)c2ccccc2C1=O [Pigment D-43] |
